These results are taken from US8188101B2 (AstraZeneca AB, priority 2008, dated 2012).

For one experiment, the system named is Aβ42 release. In words: Aβ release in cells stably expressing APPswe, Meso Scale Discovery electrochemiluminescence assay. The experiment is classed as cell-based, Human. The conditions noted are these: HEK or SH-SY5Y cells stably expressing APPswe, 4-6 hours incubation with test compound. The procedure: The level of activity of the compounds on Aβ release was tested using the following method:
Compounds were diluted in 100% DMSO and stored at […] prior to use. Human Embryonic Kidney (HEK) or Human Neuroblastoma (SH-SY5Y) cell lines stably expressing APP with the Swedish mutation (APPswe) were cultured using Dulbecco's Modified Eagles medium (DMEM) supplied with […] glucose, Na-pyruvate and GlutaMAX with 10% FBS, 100 U/ml penicillin-streptomycin (PEST) respectively, 1× non-essential amino acids (NEAA), […] Hepes, 100 μg/ml Zeocine. Cells at about 80% confluence were washed with PBS, detached from culture flasks using 1× Trypsin/EDTA diluted in PBS, re-suspended in cell media and plated in 384-well poly-d-lysine coated cell culture plates at about 10000-15000 cells/well, in 25 μL cell media. Optionally, cryo-preserved cells (frozen and stored at −140° C. in 90% cell media and 10% DMSO) were thawed, washed and plated as above. Next the cells were incubated for 15-24 h at 37° C. and 5% CO2, after which cell medium was changed. Fresh medium containing test compound diluted ×200 from prepared compound plate was added to the cells before further incubation for 4-6 hours at 37° C. and 5% CO2. After incubation with test compound the amount of Aβ peptides, including Aβ42, Aβ40, Aβ39, Aβ38 and Aβ37, secreted to the cell medium was analyzed using the electrochemiluminescence assay technology from Meso Scale Discovery Technology, in combination with specific antibodies raised against the different Aβ peptides. Potential cytotoxic effects of the compounds were usually assayed by measuring the ATP content (ViaLight) from cell lysate.
For orientation: pIC50 means −log10 of the IC50, conventionally taken in molar units. As for `Cc1nccn1-c1ccc(Nc2nc3c(c(C(C)c4ccccc4)n2)CN(C)CC3)cc1` (single isomer, unassigned) [Example 71, 6-Methyl-N-(4-(2-methyl-1H-imidazol-1-yl)phenyl)-4-(1-phenylethyl)-5,6,7,8-tetrahydropyrido[4,3-d]pyrimidin-2-amine], the pIC50 came out at 6.6.

Staying with this experiment, now noted: Homo sapiens, SH-SY5Y, HEK or SH-SY5Y cells stably expressing APPswe, 4-6 hours incubation with test compound.
Usually IC50 stands for the concentration that inhibits the measured activity by half. `Cc1nccn1-c1ccc(Nc2nc3c(c(N4c5ccccc5C[C@@H]4CO)n2)CN(C)CC3)cc1` [Example 13, (R)-(1-(6-Methyl-2-(4-(2-methyl-1H-imidazol-1-yl)phenylamino)-5,6,7,8-tetrahydropyrido[4,3-d]pyrimidin-4-yl)indolin-2-yl)methanol]: the IC50 was 3160 nM. The same measure, in the same setting: the result for `O=C(CO)N1CCc2nc(Nc3ccc(-c4cnco4)cc3)nc(N(CCO)c3ccccc3)c2C1` [Example 19, 2-Hydroxy-1-(4-((2-hydroxyethyl)(phenyl)amino)-2-(4-(oxazol-5-yl)phenylamino)-7,8-dihydropyrido[4,3-d]pyrimidin-6(5H)-yl)ethanone] reads 794 nM; that for `CC(=O)N1CCc2nc(Nc3ccc(-c4cnco4)cc3)nc(N(CCC#N)C3CC3)c2C1` [Example 31, 3-((6-Acetyl-2-(4-(oxazol-5-yl)phenylamino)-5,6,7,8-tetrahydropyrido[4,3-d]pyrimidin-4-yl)(cyclopropyl)amino)propanenitrile], 794 nM; that for `CC(=O)N1CCc2nc(Nc3ccc(-c4cnco4)cc3)nc(N3c4ccccc4C[C@H]3CO)c2C1` [Example 30], 1000 nM. The same measure, in the same setting: the result for `Cc1nccn1-c1ccc(Nc2nc3c(c(NC[C@H]4CCCO4)n2)CN(C)CC3)cc1` [Example 74, (R)-6-Methyl-N2-(4-(2-methyl-1H-imidazol-1-yl)phenyl)-N4-((tetrahydrofuran-2-yl)methyl)-5,6,7,8-tetrahydropyrido[4,3-d]pyrimidine-2,4-diamine] reads 1000 nM. In the case of `CN1CCc2nc(Nc3ccc(-c4cnn(C)c4)cc3)nc(N(CCO)c3ccccc3)c2C1` [Example 38, 2-((6-Methyl-2-(4-(1-methyl-1H-pyrazol-4-yl)phenylamino)-5,6,7,8-tetrahydropyrido[4,3-d]pyrimidin-4-yl)(phenyl)amino)ethanol], the IC50 is 398 nM. Take `OCCN1CCc2nc(Nc3ccc(-c4cnco4)cc3)nc(NC[C@H]3CCCO3)c2C1` [Example 80, (R)-2-(2-(4-(Oxazol-5-yl)phenylamino)-4-((tetrahydrofuran-2-yl)methylamino)-7,8-dihydropyrido[4,3-d]pyrimidin-6(5H)-yl)ethanol]: the IC50 was 158 nM. On the same count and under the same terms, the result for `CC(=O)N1CCc2nc(Nc3ccc(-n4ccnc4C)cc3)nc(CCC3CCCCC3)c2C1` [Example 58, 1-(4-(2-Cyclohexylethyl)-2-(4-(2-methyl-1H-imidazol-1-yl)phenylamino)-7,8-dihydropyrido[4,3-d]pyrimidin-6(5H)-yl)ethanone] reads 200 nM; that for `COc1cc(Nc2nc3c(c(Cc4ccc(F)cc4)n2)C[S+]([O-])CC3)ccc1-n1cnc(C)c1` (stereo not shown) [Example 44, 4-(4-Fluorobenzyl)-N-[3-methoxy-4-(4-methyl-1H-imidazol-1-yl)phenyl]-7,8-dihydro-5H-thiopyrano[4,3-d]pyrimidin-2-amine 6-oxide], 79.4 nM; that for `COc1cc(Nc2nc3c(c(Cc4ccccc4)n2)CN(CCO)CC3)ccc1-n1cnc(C)c1` [Example 75, 2-(4-Benzyl-2-(3-methoxy-4-(4-methyl-1H-imidazol-1-yl)phenylamino)-7,8-dihydropyrido[4,3-d]pyrimidin-6(5H)-yl)ethanol], 25.1 nM. Still for that read-out and setting: next, `CCCN1CCc2nc(Nc3ccc(-c4cnn(C)c4)cc3)nc(N(CCO)c3ccccc3)c2C1` [Example 39, 2-((2-(4-(1-Methyl-1H-pyrazol-4-yl)phenylamino)-6-propyl-5,6,7,8-tetrahydropyrido[4,3-d]pyrimidin-4-yl)(phenyl)amino)ethanol]: 158 nM. With `CC(=O)N1CCc2nc(Nc3ccc(-n4ccnc4C)cc3)nc(CC3CCOCC3)c2C1` [Example 63, 1-(2-(4-(2-Methyl-1H-imidazol-1-yl)phenylamino)-4-((tetrahydro-2H-pyran-4-yl)methyl)-7,8-dihydropyrido[4,3-d]pyrimidin-6(5H)-yl)ethanone], the IC50 was 50100 nM. The same measure, in the same setting: next, `COC(=O)N1CCc2nc(Nc3ccc(-c4cnco4)cc3)nc(N(CCO)c3ccccc3)c2C1` [Example 23, Methyl 4-((2-hydroxyethyl)(phenyl)amino)-2-(4-(oxazol-5-yl)phenylamino)-7,8-dihydropyrido[4,3-d]pyrimidine-6(5H)-carboxylate]: 6310 nM. The same measure, in the same setting: the result for `CCCN1CCc2nc(Nc3ccc(-c4cnco4)cc3)nc(N(CCO)c3ccccc3)c2C1` [Example 14, 2-((2-(4-(Oxazol-5-yl)phenylamino)-6-propyl-5,6,7,8-tetrahydropyrido[4,3-d]pyrimidin-4-yl)(phenyl)amino)ethanol] reads 126 nM. Same read-out and setting: the result for `CC(=O)N1CCc2nc(Nc3ccc(-c4cnco4)cc3)nc(N(C)Cc3ccccn3)c2C1` [Example 92, 1-(4-(Methyl(pyridin-2-ylmethyl)amino)-2-(4-(oxazol-5-yl)phenylamino)-7,8-dihydropyrido[4,3-d]pyrimidin-6(5H)-yl)ethanone] reads 5010 nM; that for `Cc1nccn1-c1ccc(Nc2nc(CCC3CCCCC3)c3c(n2)CCN(C)C3)cc1` [Example 54, 4-(2-Cyclohexylethyl)-6-methyl-N-(4-(2-methyl-1H-imidazol-1-yl)phenyl)-5,6,7,8-tetrahydropyrido[4,3-d]pyrimidin-2-amine], 316 nM; that for `Cc1ccc(Cc2nc(Nc3ccc(-n4ccnc4C)cc3)nc3c2CN(C)CC3)cc1` [Example 50, 6-Methyl-N-(4-(2-methyl-1H-imidazol-1-yl)phenyl)-4-(4-methylbenzyl)-5,6,7,8-tetrahydropyrido[4,3-d]pyrimidin-2-amine], 251 nM. `CC(=O)N1CCc2nc(Nc3ccc(-c4cnco4)cc3)nc(N(C)Cc3ccccc3CO)c2C1` [Example 91, 1-(4-((2-(Hydroxymethyl)benzyl)(methyl)amino)-2-(4-(oxazol-5-yl)phenylamino)-7,8-dihydropyrido[4,3-d]pyrimidin-6(5H)-yl)ethanone]: the IC50 is 2510 nM. The same measure, in the same setting: the result for `Cc1nccn1-c1ccc(Nc2nc3c(c(CC4CCOCC4)n2)COCC3)cc1` [Example 67, N-(4-(2-Methyl-1H-imidazol-1-yl)phenyl)-4-((tetrahydro-2H-pyran-4-yl)methyl)-7,8-dihydro-5H-pyrano[4,3-d]pyrimidin-2-amine] reads 10000 nM; that for `Cc1nccn1-c1ccc(Nc2nc3c(c(Cc4ccccc4)n2)COCC3)cc1` [Example 45, 4-Benzyl-N-(4-(2-methyl-1H-imidazol-1-yl)phenyl)-7,8-dihydro-5H-pyrano[4,3-d]pyrimidin-2-amine], 631 nM; that for `CN1CCc2nc(Nc3ccc(-c4cnco4)cc3)nc(N(CCO)c3ccccc3)c2C1` [Example 2, 2-((6-Methyl-2-(4-(oxazol-5-yl)phenylamino)-5,6,7,8-tetrahydropyrido[4,3-d]pyrimidin-4-yl)(phenyl)amino)ethanol], 398 nM. Same read-out and setting: the result for `Cc1nccn1-c1ccc(Nc2nc(CCc3cccc(F)c3)c3c(n2)CCN(C)C3)cc1` [Example 51, 4-(3-Fluorophenethyl)-6-methyl-N-(4-(2-methyl-1H-imidazol-1-yl)phenyl)-5,6,7,8-tetrahydropyrido[4,3-d]pyrimidin-2-amine] reads 251 nM; that for `Cc1nccn1-c1ccc(Nc2nc3c(c(CC4CCOCC4)n2)CN(CCO)CC3)cc1` [Example 62, 2-(2-(4-(2-Methyl-1H-imidazol-1-yl)phenylamino)-4-((tetrahydro-2H-pyran-4-yl)methyl)-7,8-dihydropyrido[4,3-d]pyrimidin-6(5H)-yl)ethanol], 10000 nM.

As to `CC(=O)N1CCc2nc(Nc3ccc(-c4cnco4)cc3)nc(N(C)c3ccc(F)cc3)c2C1` [Example 89, 1-(4-((4-Fluorophenyl)(methyl)amino)-2-(4-(oxazol-5-yl)phenylamino)-7,8-dihydropyrido[4,3-d]pyrimidin-6(5H)-yl)ethanone], the IC50 was 631 nM. Take `CN(C)C(=O)N1CCc2nc(Nc3ccc(-c4cnco4)cc3)nc(N(CCO)c3ccccc3)c2C1` [Example 25, 4-((2-Hydroxyethyl)(phenyl)amino)-N,N-dimethyl-2-(4-(oxazol-5-yl)phenylamino)-7,8-dihydropyrido[4,3-d]pyrimidine-6(5H)-carboxamide]: the IC50 is 794 nM. For `CC(=O)c1cccc(Nc2nc(Nc3ccc(-c4cnco4)cc3)nc3c2CN(C(C)=O)CC3)c1` [Example 33, 1-(3-(6-Acetyl-2-(4-(oxazol-5-yl)phenylamino)-5,6,7,8-tetrahydropyrido[4,3-d]pyrimidin-4-ylamino)phenyl)ethanone], the IC50 is 1260 nM. On the same count and under the same terms, the result for `COc1cc(Nc2nc3c(c(Cc4ccccc4)n2)CN(CC#N)CC3)ccc1-n1cnc(C)c1` [Example 105, 2-(4-Benzyl-2-(3-methoxy-4-(4-methyl-1H-imidazol-1-yl)phenylamino)-7,8-dihydropyrido[4,3-d]pyrimidin-6(5H)-yl)acetonitrile] reads 15.8 nM.
